Measurements from US20250243194A1, “ANTAGONIST OF ADENOSINE RECEPTORS” (AdoRx Therapeutics Limited, priority 2022, published 2025).

Key:
[1] = molecular target: human Adenosine A2b receptor (Homo sapiens (Human), UniProt P29275); assay: Adenosine receptor TR-FRET binding assay (A2b); conditions: inhibition of binding of 30 nM CA200645; CHO cell membranes; Ki from IC50 by Cheng and Prusoff
Experimental: (§1) All FRET binding experiments were conducted at room temperature in white 384-well plates, in assay binding buffer containing 1× LabMed (Cisbio, France), 100 μg/mL saponin, 1% DMSO and 0.02% pluronic acid. Binding of the fluorescently labelled Adenosine receptor antagonist XAC (CA200645, FRET acceptor) to terbium-labelled A1, A2a, A2b and A3 adenosine receptors (FRET donors) was detected by time-resolved FRET due to the close proximity of the donor and acceptor in a binding event. To investigate the ability of unlabelled test compounds to bind to Adenosine A1, A2a, A2b and A3 receptors, dose response curves were constructed that determined the ability of a range of concentrations to inhibit the binding of 30 nM CA200645 to the A2b receptor and 100 nM CA200645 to the A1, A2a, and A3 receptor.
(§2) Serial dilution (1:3 dilutions) of test compounds in neat DMSO and transfer of a 400 nL sample of test compound into the assay plate was carried out using the Mosquito (TTP Labtech, UK). The compound samples were incubated for 2 hours at room temperature with a fixed concentration of CA200645 defined for each receptor (see above) and CHO cell membranes containing the human Adenosine A1 (0.5 μg/well), A2a (0.3 μg/well), A2b (1 μg/well) or A3 (1 μg/well) receptor in 40 μL of assay buffer. Total and non-specific binding of CA200645 was determined in the absence and presence of 10 μM XAC, respectively. Following 2 hours incubation, the level of CA200645 binding was detected on a Pherastar FSX (BMG Labtech, Germany) using standard TR-FRET settings. The terbium donor was excited with three laser flashes at a wavelength of 337 nm, and donor and acceptor emission was detected at 620 nm and 665 nm wavelengths, respectively. FRET ratios were obtained by multiplying the acceptor/donor ratio value by 10,000. Specific binding was determined by subtracting the non-specific binding FRET ratio from the total binding FRET ratio. Compound IC50 curves were analysed using GraphPad Prism 7.0 (GraphPad, USA) and Ki affinity values were determined from the obtained IC50 values using the method of Cheng and Prusoff.

[2] = molecular target: human Adenosine A1 receptor (Homo sapiens (Human), UniProt P30542); assay: Adenosine receptor TR-FRET binding assay (A1); conditions: inhibition of binding of 100 nM CA200645; CHO cell membranes; Ki from IC50 by Cheng and Prusoff
Sequence of human Adenosine A1 receptor (P30542 whole entry): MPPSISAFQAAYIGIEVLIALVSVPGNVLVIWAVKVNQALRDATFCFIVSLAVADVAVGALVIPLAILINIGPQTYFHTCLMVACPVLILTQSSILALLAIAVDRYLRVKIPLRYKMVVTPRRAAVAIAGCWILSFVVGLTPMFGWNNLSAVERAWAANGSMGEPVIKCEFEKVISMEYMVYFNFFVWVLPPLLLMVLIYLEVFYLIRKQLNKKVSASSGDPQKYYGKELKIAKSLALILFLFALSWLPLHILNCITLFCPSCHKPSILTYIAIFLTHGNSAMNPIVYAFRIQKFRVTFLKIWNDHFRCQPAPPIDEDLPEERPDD
Experimental: as §1, §2

[3] = molecular target: human Adenosine A2a receptor (Homo sapiens (Human), UniProt P29274); assay: Adenosine receptor TR-FRET binding assay (A2a); conditions: inhibition of binding of 100 nM CA200645; CHO cell membranes; Ki from IC50 by Cheng and Prusoff
Sequence of human Adenosine A2a receptor (P29274 whole entry): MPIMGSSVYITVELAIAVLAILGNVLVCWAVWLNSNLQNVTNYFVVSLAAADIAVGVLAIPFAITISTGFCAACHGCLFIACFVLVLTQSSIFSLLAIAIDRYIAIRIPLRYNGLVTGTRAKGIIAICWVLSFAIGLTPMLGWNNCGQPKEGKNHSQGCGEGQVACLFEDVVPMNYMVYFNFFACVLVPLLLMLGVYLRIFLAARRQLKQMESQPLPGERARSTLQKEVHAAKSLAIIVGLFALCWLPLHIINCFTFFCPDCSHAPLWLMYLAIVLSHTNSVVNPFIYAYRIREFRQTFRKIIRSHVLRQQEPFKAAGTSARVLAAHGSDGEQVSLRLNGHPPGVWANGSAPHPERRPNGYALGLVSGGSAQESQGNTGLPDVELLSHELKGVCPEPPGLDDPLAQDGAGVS
Experimental: as §1, §2

[4] = molecular target: human Adenosine A3 receptor (Homo sapiens (Human), UniProt P0DMS8); assay: Adenosine receptor TR-FRET binding assay (A3); conditions: inhibition of binding of 100 nM CA200645; CHO cell membranes; Ki from IC50 by Cheng and Prusoff
Sequence of human Adenosine A3 receptor (P0DMS8 whole entry): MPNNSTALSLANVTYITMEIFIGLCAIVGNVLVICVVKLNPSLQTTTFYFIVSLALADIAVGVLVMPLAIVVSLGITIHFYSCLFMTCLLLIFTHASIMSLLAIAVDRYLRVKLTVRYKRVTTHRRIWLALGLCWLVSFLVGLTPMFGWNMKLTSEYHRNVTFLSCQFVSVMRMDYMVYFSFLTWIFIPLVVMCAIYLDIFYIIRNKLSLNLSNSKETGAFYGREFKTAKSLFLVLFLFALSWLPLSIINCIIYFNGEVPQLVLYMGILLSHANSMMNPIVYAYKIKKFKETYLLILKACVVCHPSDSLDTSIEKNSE
Experimental: as §1, §2

Sequence of human Adenosine A2b receptor (P29275 whole entry): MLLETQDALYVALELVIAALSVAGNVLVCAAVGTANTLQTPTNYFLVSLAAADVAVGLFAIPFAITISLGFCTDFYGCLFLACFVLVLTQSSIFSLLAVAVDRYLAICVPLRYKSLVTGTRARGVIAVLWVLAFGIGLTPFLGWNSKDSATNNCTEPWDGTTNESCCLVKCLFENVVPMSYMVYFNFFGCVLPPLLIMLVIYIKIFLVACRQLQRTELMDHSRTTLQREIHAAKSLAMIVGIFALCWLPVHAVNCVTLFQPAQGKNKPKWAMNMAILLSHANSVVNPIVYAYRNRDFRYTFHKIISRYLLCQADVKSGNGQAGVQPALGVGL

Ki [1] | Ki [2] | Ki [3] | Ki [4] | Structure (SMILES)
0.5 nM | 0.3 nM | 0.07 nM | 1730 nM | Cn1cnc2ccc(-c3sc(NC(=O)N4CC5(COC5)C4)nc3-c3cccc(C#N)c3)cc21 [Example 25, N-[4-(3-Cyanophenyl)-5-(3-methylbenzimidazol-5-yl)thiazol-2-yl]-2-oxa-6-azaspiro[3.3]heptane-6-carboxamide]
0.8 nM | 1 nM | 3.11 nM | 305 nM | N#Cc1cccc(-c2nc(NC(=O)N3CC4(COC4)C3)sc2-c2c[nH]c3ncccc23)c1 [Example 17, N-[4-(3-Cyanophenyl)-5-(1H-pyrrolo[2,3-b]pyridin-3-yl)thiazol-2-yl]-2-oxa-6-azaspiro[3.3]heptane-6-carboxamide]
136 nM | 272 nM | 8.87 nM | 103 nM | Cc1cc(-c2sc(NC(=O)N3CC4(COC4)C3)nc2-c2cccc(C#N)c2)cnc1-n1nccn1 [Example 32, N-[4-(3-Cyanophenyl)-5-[5-methyl-6-(triazol-2-yl)-3-pyridyl]thiazol-2-yl]-2-oxa-6-azaspiro[3.3]heptane-6-carboxamide]
0.5 nM | 1 nM | 1 nM | 290 nM | N#Cc1cccc(-c2nc(NC(=O)N3CC4(COC4)C3)sc2-c2ccnc3[nH]ccc23)c1 [Example 2.4, N-[4-(3-Cyanophenyl)-5-(1H-pyrrolo[2,3-b]pyridin-4-yl)thiazol-2-yl]-2-oxa-6-azaspiro[3.3]heptane-6-carboxamide]
7.6 nM | 290 nM | 7.4 nM | 260 nM | Cc1cc(-c2sc(NC(=O)N3CC4(COC4)C3)nc2-c2cccc(C#N)c2)c2cc[nH]c2n1 [Example 34, N-[4-(3-Cyanophenyl)-5-(6-methyl-1H-pyrrolo[2,3-b]pyridin-4-yl)thiazol-2-yl]-2-oxa-6-azaspiro[3.3]heptane-6-carboxamide]
0.9 nM | 14 nM | 3.3 nM | 2600 nM | Cc1cc(-c2sc(NC(=O)N3CC4(COC4)C3)nc2-c2cccc(C#N)c2)c2cn[nH]c2n1 [Example 2.5, N-[4-(3-Cyanophenyl)-5-(6-methyl-1H-pyrazolo[3,4-b]pyridin-4-yl)thiazol-2-yl]-2-oxa-6-azaspiro[3.3]heptane-6-carboxamide]
1.4 nM | 0.4 nM | 0.15 nM | 2550 nM | Cc1cnc2ccc(-c3sc(NC(=O)N4CC5(COC5)C4)nc3-c3cccc(C#N)c3)cn12 [Example 22, N-[4-(3-Cyanophenyl)-5-(3-methylimidazo[1,2-a]pyridin-6-yl)thiazol-2-yl]-2-oxa-6-azaspiro[3.3]heptane-6-carboxamide]
1.6 nM | 467 nM | 6.56 nM | 126 nM | Cc1cc(-c2sc(NC(=O)N3CC4(COC4)C3)nc2-c2cccc(C#N)c2)c2[nH]ncc2n1 [Example 23, N-[4-(3-Cyanophenyl)-5-(5-methyl-1H-pyrazolo[4,3-b]pyridin-7-yl)thiazol-2-yl]-2-oxa-6-azaspiro[3.3]heptane-6-carboxamide]
1.6 nM | 1.6 nM | 1.4 nM | 130 nM | N#Cc1cccc(-c2nc(NC(=O)N3CC4(COC4)C3)sc2-c2ccc3ncoc3c2)c1 [Example 35, N-[5-(1,3-benzoxazol-6-yl)-4-(3-cyanophenyl)thiazol-2-yl]-2-oxa-6-azaspiro[3.3]heptane-6-carboxamide]
0.9 nM | 1 nM | 0.11 nM | 2630 nM | Cc1cc(-c2sc(NC(=O)N3CC4(COC4)C3)nc2-c2cccc(C#N)c2)cn2c(C)cnc12 [Example 18, N-[4-(3-Cyanophenyl)-5-(3,8-dimethylimidazo[1,2-a]pyridin-6-yl)thiazol-2-yl]-2-oxa-6-azaspiro[3.3]heptane-6-carboxamide]
0.9 nM | 121 nM | 36.9 nM | 828 nM | Cc1ncnc2ccc(-c3sc(NC(=O)N4CC[C@@](C)(C#N)C4)nc3-c3cccc(C#N)c3)cc12 [Example 7.1, (3R)-3-Cyano-N-[4-(3-cyanophenyl)-5-(4-methylquinazolin-6-yl)thiazol-2-yl]-3-methyl-pyrrolidine-1-carboxamide]
3.3 nM | 2 nM | 2.69 nM | 820 nM | Cc1cc(-c2sc(NC(=O)N3CC4(COC4)C3)nc2-c2cccc(C#N)c2)cc2[nH]ncc12 [Example 2.2, N-[4-(3-Cyanophenyl)-5-(4-methyl-1H-indazol-6-yl)thiazol-2-yl]-2-oxa-6-azaspiro[3.3]heptane-6-carboxamide]
1.7 nM | 1 nM | 1.37 nM | 466 nM | Cc1cc(-c2sc(NC(=O)N3CC4(COC4)C3)nc2-c2cccc(C#N)c2)cc2[nH]nnc12 [Example 2.3, N-[4-(3-Cyanophenyl)-5-(7-methyl-3H-benzotriazol-5-yl)thiazol-2-yl]-2-oxa-6-azaspiro[3.3]heptane-6-carboxamide]
2.6 nM | 4 nM | 8.33 nM | 421 nM | Cn1ccc2c(-c3sc(NC(=O)N4CC5(COC5)C4)nc3-c3cccc(C#N)c3)ccnc21 [Example 21, N-[4-(3-Cyanophenyl)-5-(1-methylpyrrolo[2,3-b]pyridin-4-yl)thiazol-2-yl]-2-oxa-6-azaspiro[3.3]heptane-6-carboxamide]
6.7 nM | 21 nM | 8.4 nM | 628 nM | Cc1cc(-c2sc(NC(=O)N3CC4(COC4)C3)nc2-c2cccc(C#N)c2)cc2cn(C)nc12 [Example 28, N-[4-(3-Cyanophenyl)-5-(2,7-dimethylindazol-5-yl)thiazol-2-yl]-2-oxa-6-azaspiro[3.3]heptane-6-carboxamide]
0.5 nM | 0.3 nM | 0.33 nM | 904 nM | N#Cc1cccc(-c2nc(NC(=O)N3CC4(COC4)C3)sc2-c2ccc3nccn3c2)c1 [Example 26, N-[4-(3-Cyanophenyl)-5-imidazo[1,2-a]pyridin-6-yl-thiazol-2-yl]-2-oxa-6-azaspiro[3.3]heptane-6-carboxamide]
2.9 nM | 0.5 nM | 0.08 nM | 907 nM | Cc1cc(-c2sc(NC(=O)N3CC4(COC4)C3)nc2-c2cccc(C#N)c2)cc2cn[nH]c12 [Example 27, N-[4-(3-Cyanophenyl)-5-(7-methyl-1H-indazol-5-yl)thiazol-2-yl]-2-oxa-6-azaspiro[3.3]heptane-6-carboxamide]
38.7 nM | 57 nM | 4.31 nM | 1180 nM | Cc1cc(-c2sc(NC(=O)N3CC4(COC4)C3)nc2-c2cccc(C#N)c2)cnn1 [Example 31, N-[4-(3-Cyanophenyl)-5-(6-methylpyridazin-4-yl)thiazol-2-yl]-2-oxa-6-azaspiro[3.3]heptane-6-carboxamide]
